Assay results: US6444614B2, “Aspartic acid derivative-containing compositions and use thereof in stimulating and/or regulating plant and plant precursor growth” (LidoChem Inc., priority 2000, dated 2002)
Counter-ions that a name gives are not always drawn.

Experiments:
Mexican Heather plants = assay: Soil application of IDS and/or EDDS free acids to Mexican heather plants (Example IV); assay type: in vivo, Cuphea hyssopifolia Kunth.; settings: 200 ppm free acid; for root mass versus vegetative growth: within 10 mm of each plant
Experimental: Four sets of six Mexican Heather plants each were placed on trays without transplanting. 0.2 gm/liter stock solutions of IDS and EDDS free acids prepared according to Example III, supra, were used, in three different treatments (EDDS alone, IDS alone and a 50:50 mixture of EDDS and IDS) to treat the three sets of plants as set forth in Table IV, attached, by placing the solutions into the soil within 10 mm. of each of the plants. A fourth set was treated with distilled water (the ‘control’ set).

[1] = system: germinated sweet corn seeds; assay: Germinated sweet corn seeds on water plates treated with tetra-sodium salt of EDDS (Example I); assay type: in vivo, Zea mays L. var. saccharata; settings: for NUMBER OF SEED GERMINATED AND SURVIVED: Sweet corn, 10 seeds per plate; for germinating-seed stimulating concentration: germinating sweet corn seed, treating solution
Experimental: (§1) Styrofoam plates were each charged with 80 ml. water. The plates are titled: (a) the ‘control’ plates; (b) the ‘Treatment 1’ plates; and (c) the ‘Treatment 2’ plates.
(§2) Into the ‘control’ plates, the ‘Treatment 1’ plates and the ‘Treatment 2’ plates were placed, at the loading of 10 seeds per plate, germinated sweet corn seeds, germinated field corn seeds, germinated snap bean, seeds, germinated cantaloupe melon seeds and germinated soy bean seeds.
(§3) The ‘Treatment 1’ plates were then each treated with 0.1 ml. of a 38% aqueous solution of the tetra-sodium salt of EDDS (having the structure as set forth in FIG. 15), or 0.000475 gm./plate, or 475 ppm per plate.
(§4) The ‘Treatment 2’ plates were then each treated with 1 ml. of a 38% aqueous solution of the tetra-odium salt of EDDS, or 0.00475 gm./plate or 4750 ppm per plate.
(§5) No EDDS salt was added to the ‘control’ plate.
(§6) Over a period of 9 days, each plate had distilled water added thereto, as needed, in order to make up for the evaporation of the water during the 9 day period.
(§7) 9 days after the trial commenced, the number of germinated seeds which survived were as set forth in attached Table I.

[2] = system: germinated field corn seeds; assay: Germinated field corn seeds on water plates treated with tetra-sodium salt of EDDS (Example I); assay type: in vivo, Zea mays L.; settings: after 9 days; for NUMBER OF SEED GERMINATED AND SURVIVED: Field corn, 10 seeds per plate
Experimental: as §1, §2, §3, §4, §5, §6, §7

[3] = system: germinated snap bean seeds; assay: Germinated snap bean seeds on water plates treated with tetra-sodium salt of EDDS (Example I); assay type: in vivo, Phaseolus vulgaris L.; settings: Snap beans, 10 seeds per plate, after 9 days
Experimental: as §1, §2, §3, §4, §5, §6, §7

[4] = system: germinated cantaloupe melon seeds; assay: Germinated cantaloupe melon seeds on water plates treated with tetra-sodium salt of EDDS (Example I); assay type: in vivo; settings: 10 seeds per plate, after 9 days
Experimental: as §1, §2, §3, §4, §5, §6, §7

Lettuce seeds = settings: cultured in a fertilizer soln. contg. 100 ppm; cited from earlier work
sweet corn seeds = assay: Sweet corn seeds on water plates treated with IDS salt alone or with EDDS salt (Example II); assay type: in vivo, Zea mays L. var. saccharata; settings: 9 day period; IDS salt 4630 or 463 ppm per plate, or IDS + EDDS salt mixture (Treatment 3)
Experimental: Styrofoam plates were each charged with 80 ml. water. The plates are titled: (a) the ‘control’ plates; (b) the ‘Treatment 1’ plates; (c) the ‘Treatment 2’ plates and (d) the ‘Treatment 3’ plates.
Into the ‘control’ plates, the ‘Treatment 1’ plates, the ‘Treatment 2’ plates and the ‘Treatment 3’ plates, were placed, at a loading of 6 seeds per plate, sweet corn seeds, field corn seeds, cantaloupe melon seeds and soy bean seeds.
The ‘Treatment 1’ plates were then each treated with 1 ml. of a 37% solution of the tri-potassium salt of IDS (having the structure as set forth in FIG. 17), or 0.00463 gm./plate or 4630 ppm per plate.
The ‘Treatment 2’ plates were then each treated with 0.1 ml. of a 37% solution of the tri-potassium salt of IDS, or 0.000463 gm./plate, or 463 ppm per plate.
The ‘Treatment 3’ plates were then each treated with a mixture 0.5 ml. of a 37% solution of the tri-potassium salt of IDS and 0.5 ml. of a 38% solution of the tetra-sodium salt of EDDS, or 0.000231 gm/plate of the IDS salt and 0.000238 gm./plate of the EDDS salt.
No EDDS or IDS salts were added to the control plate.
Over a period of 9 days, each plate had distilled water added thereto, as needed, in order to make up for the evaporation of water during the 9 day period.
9 days after the trial commenced, the number of germinated seeds which survived were as set forth in attached Table II.

[5] = Treatment 1 (EDDS at 0.1 ml Per liter; 475 ppm per plate)
[6] = Treatment 2 (EDDS at 1 ml Per liter; 4750 ppm per plate)

O=C(O)CC(NCCNC(CC(=O)O)C(=O)O)C(=O)O (mixture of isomers) [EDDS free acid, N,N′-1,2-ethanediylbis-aspartic acid]
leaf position and internode lengths at the end of the experiment (Mexican Heather plants): the plant leaves are lower on the main stem and internode lengths are shortened | root mass versus vegetative growth (Mexican Heather plants): promoted a greater root mass at the expense of vegetative growth

O=C(O)CC(NCCNC(CC(=O)O)C(=O)O)C(=O)O (mixture of isomers) [tetra-sodium salt of EDDS, N,N′-1,2-ethanediylbis-aspartic acid]
NUMBER OF SEED GERMINATED AND SURVIVED ([1]; Treatment 1 (EDDS at 0.1 ml Per liter; 475 ppm per plate), after 9 days): 10 | NUMBER OF SEED GERMINATED AND SURVIVED ([1]; Treatment 2 (EDDS at 1 ml Per liter; 4750 ppm per plate), after 9 days): 7 | germination and growth of the germinated sweet corn seeds, as compared with the control ([1]; Treatment 1 plates (475 ppm per plate), after 9 days): uniform germination and growth | germination and growth of the sweet corn ([1]; Treatment 2 plates (4750 ppm per plate), after 9 days): inhibition of the germination and growth | action on germinating seed ([1]; at a concentration of about 10×10^−4 gram moles per liter): acts as a germinating seed growth regulator | germinating-seed stimulating concentration [1]: about 1×10^−4 gram moles per liter | NUMBER OF SEED GERMINATED AND SURVIVED [2, 5]: 9 | NUMBER OF SEED GERMINATED AND SURVIVED [2, 6]: 4 | germination and growth of the field corn ([2]; Treatment 2 plates (4750 ppm per plate)): inhibition of the germination and growth | NUMBER OF SEED GERMINATED AND SURVIVED [3, 5]: 5 | NUMBER OF SEED GERMINATED AND SURVIVED [3, 6]: 1 | NUMBER OF SEED GERMINATED AND SURVIVED [4, 5]: 1 | NUMBER OF SEED GERMINATED AND SURVIVED [4, 6]: 0

O=C(O)CC(N[C@@H](CC(=O)O)C(=O)O)C(=O)O (stereo partly shown) [IDS free acid, N-(1,2-dicarboxyethyl)aspartic acid]
root mass versus vegetative growth (Mexican Heather plants): promoted a greater root mass at the expense of vegetative growth, although to a significantly lesser extent than done using EDDS

O=C(O)C[C@H](NCCN[C@@H](CC(=O)O)C(=O)O)C(=O)O [S,S-ethylenediamine-N,N-disuccinic acid]
plant growth of lettuce (Lettuce seeds): good plant growth

O=C(O)CC(N[C@@H](CC(=O)O)C(=O)O)C(=O)O (stereo partly shown) [tri-potassium salt of IDS, N-(1,2-dicarboxyethyl)aspartic acid]
germinating-seed stimulating concentration [1]: about 1×10^−4 gram moles per liter | germination and uniformity of seedling growth, sweet corn seeds (sweet corn seeds): germinated and the resulting seedlings started to grow more uniformly
